Patent US8192962B2, “Processes for detecting toxic substances” (Daikin Industries, Ltd., priority 2001, dated 2012)

System: Unknown protein yeast genes
Assay: DNA chip mRNA expression in yeast, unknown protein yeast genes (Table 1)
Type: cell-based, Saccharomyces cerevisiae S288C
How it was run: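 Measured as treated-to-untreated fluorescence ratio on a full-genome yeast DNA chip. Cells (S288C, YPD, 25° C.) were exposed in log phase for two hours to one chemical, dosed to curb growth without killing.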

## [Cl][Pb][Cl] [(4), PbCl2]
Yeast gene YAL053W, incubated two hours with chemical substance
  The level of expressed mRNA in the presence of chemical substance/The level of expressed mRNA in the absence of chemical substance: 2.1
Yeast gene YBL048W
  The level of expressed mRNA in the presence of chemical substance/The level of expressed mRNA in the absence of chemical substance: 2.8
Yeast gene YBL107C
  The level of expressed mRNA in the presence of chemical substance/The level of expressed mRNA in the absence of chemical substance: 1.5
Yeast gene YDL072C, incubated two hours with chemical substance
  The level of expressed mRNA in the presence of chemical substance/The level of expressed mRNA in the absence of chemical substance: 2.1
Yeast gene YDL204W, incubated two hours with chemical substance
  The level of expressed mRNA in the presence of chemical substance/The level of expressed mRNA in the absence of chemical substance: 3.4
Yeast gene YDL222C, incubated two hours with chemical substance
  The level of expressed mRNA in the presence of chemical substance/The level of expressed mRNA in the absence of chemical substance: 3.9
Yeast gene YDR330W, incubated two hours with chemical substance
  The level of expressed mRNA in the presence of chemical substance/The level of expressed mRNA in the absence of chemical substance: 0.8
Yeast gene YDR411C, incubated two hours with chemical substance
  The level of expressed mRNA in the presence of chemical substance/The level of expressed mRNA in the absence of chemical substance: 1.2
Yeast gene YDR511W, incubated two hours with chemical substance
  The level of expressed mRNA in the presence of chemical substance/The level of expressed mRNA in the absence of chemical substance: 2.3
Yeast gene YDR545W, incubated two hours with chemical substance
  The level of expressed mRNA in the presence of chemical substance/The level of expressed mRNA in the absence of chemical substance: 0.7
Yeast gene YEL001C, incubated two hours with chemical substance
  The level of expressed mRNA in the presence of chemical substance/The level of expressed mRNA in the absence of chemical substance: 0.7
Yeast gene YER004W, incubated two hours with chemical substance
  The level of expressed mRNA in the presence of chemical substance/The level of expressed mRNA in the absence of chemical substance: 1.4
Yeast gene YER035W, incubated two hours with chemical substance
  The level of expressed mRNA in the presence of chemical substance/The level of expressed mRNA in the absence of chemical substance: 1.9
Yeast gene YER079W, incubated two hours with chemical substance
  The level of expressed mRNA in the presence of chemical substance/The level of expressed mRNA in the absence of chemical substance: 2.0
Yeast gene YER106W, incubated two hours with chemical substance
  The level of expressed mRNA in the presence of chemical substance/The level of expressed mRNA in the absence of chemical substance: 1.2
Yeast gene YER158C, incubated two hours with chemical substance
  The level of expressed mRNA in the presence of chemical substance/The level of expressed mRNA in the absence of chemical substance: 3.1
Yeast gene YER163C, incubated two hours with chemical substance
  The level of expressed mRNA in the presence of chemical substance/The level of expressed mRNA in the absence of chemical substance: 1.6
Yeast gene YER175C, incubated two hours with chemical substance
  The level of expressed mRNA in the presence of chemical substance/The level of expressed mRNA in the absence of chemical substance: 2.2
Yeast gene YFL006W, incubated two hours with chemical substance
  The level of expressed mRNA in the presence of chemical substance/The level of expressed mRNA in the absence of chemical substance: 1.0
Yeast gene YFL010C, incubated two hours with chemical substance
  The level of expressed mRNA in the presence of chemical substance/The level of expressed mRNA in the absence of chemical substance: 1.0
Yeast gene YFL024C
  The level of expressed mRNA in the presence of chemical substance/The level of expressed mRNA in the absence of chemical substance: 0.7
Yeast gene YFL032W, incubated two hours with chemical substance
  The level of expressed mRNA in the presence of chemical substance/The level of expressed mRNA in the absence of chemical substance: 0.8
Yeast gene YGL037C, incubated two hours with chemical substance
  The level of expressed mRNA in the presence of chemical substance/The level of expressed mRNA in the absence of chemical substance: 2.1
Yeast gene YGL047W, incubated two hours with chemical substance
  The level of expressed mRNA in the presence of chemical substance/The level of expressed mRNA in the absence of chemical substance: 2.3
Yeast gene YGL053W, incubated two hours with chemical substance
  The level of expressed mRNA in the presence of chemical substance/The level of expressed mRNA in the absence of chemical substance: 2.5
Yeast gene YGL121C
  The level of expressed mRNA in the presence of chemical substance/The level of expressed mRNA in the absence of chemical substance: 4.2
Yeast gene YGL199C, incubated two hours with chemical substance
  The level of expressed mRNA in the presence of chemical substance/The level of expressed mRNA in the absence of chemical substance: 1.0
Yeast gene YGR101W, incubated two hours with chemical substance
  The level of expressed mRNA in the presence of chemical substance/The level of expressed mRNA in the absence of chemical substance: 1.1
Yeast gene YGR110W
  The level of expressed mRNA in the presence of chemical substance/The level of expressed mRNA in the absence of chemical substance: 5.9
Yeast gene YGR130C, incubated two hours with chemical substance
  The level of expressed mRNA in the presence of chemical substance/The level of expressed mRNA in the absence of chemical substance: 1.6
Yeast gene YGR154C, incubated two hours with chemical substance
  The level of expressed mRNA in the presence of chemical substance/The level of expressed mRNA in the absence of chemical substance: 0.5
Yeast gene YGR221C, incubated two hours with chemical substance
  The level of expressed mRNA in the presence of chemical substance/The level of expressed mRNA in the absence of chemical substance: 1.4
Yeast gene YHR138C, incubated two hours with chemical substance
  The level of expressed mRNA in the presence of chemical substance/The level of expressed mRNA in the absence of chemical substance: 2.8
Yeast gene YHR199C, incubated two hours with chemical substance
  The level of expressed mRNA in the presence of chemical substance/The level of expressed mRNA in the absence of chemical substance: 2.0
Yeast gene YIL023C, incubated two hours with chemical substance
  The level of expressed mRNA in the presence of chemical substance/The level of expressed mRNA in the absence of chemical substance: 1.8
Yeast gene YIL041W, incubated two hours with chemical substance
  The level of expressed mRNA in the presence of chemical substance/The level of expressed mRNA in the absence of chemical substance: 1.3
Yeast gene YIL087C, incubated two hours with chemical substance
  The level of expressed mRNA in the presence of chemical substance/The level of expressed mRNA in the absence of chemical substance: 1.6
Yeast gene YJL057C, incubated two hours with chemical substance
  The level of expressed mRNA in the presence of chemical substance/The level of expressed mRNA in the absence of chemical substance: 1.7
Yeast gene YJL066C, incubated two hours with chemical substance
  The level of expressed mRNA in the presence of chemical substance/The level of expressed mRNA in the absence of chemical substance: 2.5
Yeast gene YJL082W, incubated two hours with chemical substance
  The level of expressed mRNA in the presence of chemical substance/The level of expressed mRNA in the absence of chemical substance: 1.1
Yeast gene YJL151C, incubated two hours with chemical substance
  The level of expressed mRNA in the presence of chemical substance/The level of expressed mRNA in the absence of chemical substance: 1.2
Yeast gene YJL152W, incubated two hours with chemical substance
  The level of expressed mRNA in the presence of chemical substance/The level of expressed mRNA in the absence of chemical substance: 1.3
Yeast gene YJL161W, incubated two hours with chemical substance
  The level of expressed mRNA in the presence of chemical substance/The level of expressed mRNA in the absence of chemical substance: 4.6
Yeast gene YJL171C, incubated two hours with chemical substance
  The level of expressed mRNA in the presence of chemical substance/The level of expressed mRNA in the absence of chemical substance: 1.4
Yeast gene YJR008W, incubated two hours with chemical substance
  The level of expressed mRNA in the presence of chemical substance/The level of expressed mRNA in the absence of chemical substance: 1.7
Yeast gene YJR054W, incubated two hours with chemical substance
  The level of expressed mRNA in the presence of chemical substance/The level of expressed mRNA in the absence of chemical substance: 0.9
Yeast gene YKL071W
  The level of expressed mRNA in the presence of chemical substance/The level of expressed mRNA in the absence of chemical substance: 2.8
Yeast gene YKL086W, incubated two hours with chemical substance
  The level of expressed mRNA in the presence of chemical substance/The level of expressed mRNA in the absence of chemical substance: 2.6
Yeast gene YKL151C, incubated two hours with chemical substance
  The level of expressed mRNA in the presence of chemical substance/The level of expressed mRNA in the absence of chemical substance: 2.5
Yeast gene YKL153W, incubated two hours with chemical substance
  The level of expressed mRNA in the presence of chemical substance/The level of expressed mRNA in the absence of chemical substance: 0.7
